Our source for the melting point values is patent publication US6903086B2, “Alkoxycarbonylamino benzoic acid or alkoxycarbonylamino tetrazolyl phenyl derivatives as IP antagonists” (SYNTEX (U.S.A.) LLC, priority 2001, dated 2005).

For the compound `Cc1ccc(NC(=O)OCCOc2ccc(-c3ccccc3)cc2)c(C(=O)O)c1` [compound 802, 2-[2-(biphenyl-4-yloxy)-ethoxycarbonylamino]-5-methyl-benzoic acid], the melting point lay within 175.5 to 177.8 °C.

Broadly, the melting point is the temperature of the solid-liquid transition.
